Measurements published in article PMC12102759 (Protein Science : A Publication of the Protein Society, 2025).

Tested on: G3BP1 NFT2
Type: binding, human
Conditions: library DMS-CoV, bait G3BP1 NFT2, prey N, listed as aa = residue placed at this position, column sums to 1

APRITFGGPSDSTGSN G14M (APRITFGGPSDSTMSN)
DMS PSSM value, G (position 14) (peptide APRITFGGPSDSTGSN): 0.3018

APRITFGGPSDSTGSN S10Y (APRITFGGPYDSTGSN)
DMS PSSM value, S (position 10) (peptide APRITFGGPSDSTGSN): 0.2277

APRITFGGPSDSTGSN R3M (APMITFGGPSDSTGSN)
DMS PSSM value, R (position 3) (peptide APRITFGGPSDSTGSN): 0.03758

RNAPRITFGGPSDSTG D13K (RNAPRITFGGPSKSTG)
DMS PSSM value, D (position 13) (peptide RNAPRITFGGPSDSTG): 0

RNAPRITFGGPSDSTG P4H (RNAHRITFGGPSDSTG)
DMS PSSM value, P (position 4) (peptide RNAPRITFGGPSDSTG): 0

APRITFGGPSDSTGSN P2L (ALRITFGGPSDSTGSN)
DMS PSSM value, P (position 2) (peptide APRITFGGPSDSTGSN): 0

RNAPRITFGGPSDSTG G16K (RNAPRITFGGPSDSTK)
DMS PSSM value, G (position 16) (peptide RNAPRITFGGPSDSTG): 0

APRITFGGPSDSTGSN G14Y (APRITFGGPSDSTYSN)
DMS PSSM value, G (position 14) (peptide APRITFGGPSDSTGSN): 0.003136

APRITFGGPSDSTGSN S15G (APRITFGGPSDSTGGN)
DMS PSSM value, S (position 15) (peptide APRITFGGPSDSTGSN): 0.002342

APRITFGGPSDSTGSN I4E (APRETFGGPSDSTGSN)
DMS PSSM value, I (position 4) (peptide APRITFGGPSDSTGSN): 0

RNAPRITFGGPSDSTG G16V (RNAPRITFGGPSDSTV)
DMS PSSM value, G (position 16) (peptide RNAPRITFGGPSDSTG): 0

RNAPRITFGGPSDSTG F8P (RNAPRITPGGPSDSTG)
DMS PSSM value, F (position 8) (peptide RNAPRITFGGPSDSTG): 0

RNAPRITFGGPSDSTG N2L (RLAPRITFGGPSDSTG)
DMS PSSM value, N (position 2) (peptide RNAPRITFGGPSDSTG): 0

RNAPRITFGGPSDSTG A3L (RNLPRITFGGPSDSTG)
DMS PSSM value, A (position 3) (peptide RNAPRITFGGPSDSTG): 0

APRITFGGPSDSTGSN P2K (AKRITFGGPSDSTGSN)
DMS PSSM value, P (position 2) (peptide APRITFGGPSDSTGSN): 0

APRITFGGPSDSTGSN T13S (APRITFGGPSDSSGSN)
DMS PSSM value, T (position 13) (peptide APRITFGGPSDSTGSN): 9.878e-5

RNAPRITFGGPSDSTG G9W (RNAPRITFWGPSDSTG)
DMS PSSM value, G (position 9) (peptide RNAPRITFGGPSDSTG): 0

RNAPRITFGGPSDSTG D13V (RNAPRITFGGPSVSTG)
DMS PSSM value, D (position 13) (peptide RNAPRITFGGPSDSTG): 0

APRITFGGPSDSTGSN T5L (APRILFGGPSDSTGSN)
DMS PSSM value, T (position 5) (peptide APRITFGGPSDSTGSN): 0.04693

APRITFGGPSDSTGSN F6L (APRITLGGPSDSTGSN)
DMS PSSM value, F (position 6) (peptide APRITFGGPSDSTGSN): 0.004454

RNAPRITFGGPSDSTG N2A (RAAPRITFGGPSDSTG)
DMS PSSM value, N (position 2) (peptide RNAPRITFGGPSDSTG): 0

APRITFGGPSDSTGSN G7A (APRITFAGPSDSTGSN)
DMS PSSM value, G (position 7) (peptide APRITFGGPSDSTGSN): 0

APRITFGGPSDSTGSN G7L (APRITFLGPSDSTGSN)
DMS PSSM value, G (position 7) (peptide APRITFGGPSDSTGSN): 0

APRITFGGPSDSTGSN D11N (APRITFGGPSNSTGSN)
DMS PSSM value, D (position 11) (peptide APRITFGGPSDSTGSN): 0.02182

RNAPRITFGGPSDSTG N2G (RGAPRITFGGPSDSTG)
DMS PSSM value, N (position 2) (peptide RNAPRITFGGPSDSTG): 0

RNAPRITFGGPSDSTG R5A (RNAPAITFGGPSDSTG)
DMS PSSM value, R (position 5) (peptide RNAPRITFGGPSDSTG): 0.0005421

APRITFGGPSDSTGSN S15L (APRITFGGPSDSTGLN)
DMS PSSM value, S (position 15) (peptide APRITFGGPSDSTGSN): 0.01038

RNAPRITFGGPSDSTG P11Y (RNAPRITFGGYSDSTG)
DMS PSSM value, P (position 11) (peptide RNAPRITFGGPSDSTG): 0

RNAPRITFGGPSDSTG N2R (RRAPRITFGGPSDSTG)
DMS PSSM value, N (position 2) (peptide RNAPRITFGGPSDSTG): 0

APRITFGGPSDSTGSN T13P (APRITFGGPSDSPGSN)
DMS PSSM value, T (position 13) (peptide APRITFGGPSDSTGSN): 0.005019

APRITFGGPSDSTGSN P2A (AARITFGGPSDSTGSN)
DMS PSSM value, P (position 2) (peptide APRITFGGPSDSTGSN): 0.004798

RNAPRITFGGPSDSTG D13E (RNAPRITFGGPSESTG)
DMS PSSM value, D (position 13) (peptide RNAPRITFGGPSDSTG): 0

RNAPRITFGGPSDSTG I6Y (RNAPRYTFGGPSDSTG)
DMS PSSM value, I (position 6) (peptide RNAPRITFGGPSDSTG): 0

RNAPRITFGGPSDSTG P11E (RNAPRITFGGESDSTG)
DMS PSSM value, P (position 11) (peptide RNAPRITFGGPSDSTG): 0

RNAPRITFGGPSDSTG N2E (REAPRITFGGPSDSTG)
DMS PSSM value, N (position 2) (peptide RNAPRITFGGPSDSTG): 0.4748

RNAPRITFGGPSDSTG F8T (RNAPRITTGGPSDSTG)
DMS PSSM value, F (position 8) (peptide RNAPRITFGGPSDSTG): 0

RNAPRITFGGPSDSTG S14V (RNAPRITFGGPSDVTG)
DMS PSSM value, S (position 14) (peptide RNAPRITFGGPSDSTG): 0

RNAPRITFGGPSDSTG G10P (RNAPRITFGPPSDSTG)
DMS PSSM value, G (position 10) (peptide RNAPRITFGGPSDSTG): 0

RNAPRITFGGPSDSTG A3N (RNNPRITFGGPSDSTG)
DMS PSSM value, A (position 3) (peptide RNAPRITFGGPSDSTG): 0

RNAPRITFGGPSDSTG F8G (RNAPRITGGGPSDSTG)
DMS PSSM value, F (position 8) (peptide RNAPRITFGGPSDSTG): 0

APRITFGGPSDSTGSN P9M (APRITFGGMSDSTGSN)
DMS PSSM value, P (position 9) (peptide APRITFGGPSDSTGSN): 0

RNAPRITFGGPSDSTG G9A (RNAPRITFAGPSDSTG)
DMS PSSM value, G (position 9) (peptide RNAPRITFGGPSDSTG): 0

RNAPRITFGGPSDSTG T15E (RNAPRITFGGPSDSEG)
DMS PSSM value, T (position 15) (peptide RNAPRITFGGPSDSTG): 0

RNAPRITFGGPSDSTG G10R (RNAPRITFGRPSDSTG)
DMS PSSM value, G (position 10) (peptide RNAPRITFGGPSDSTG): 0

APRITFGGPSDSTGSN T13R (APRITFGGPSDSRGSN)
DMS PSSM value, T (position 13) (peptide APRITFGGPSDSTGSN): 0

APRITFGGPSDSTGSN G8I (APRITFGIPSDSTGSN)
DMS PSSM value, G (position 8) (peptide APRITFGGPSDSTGSN): 0

RNAPRITFGGPSDSTG A3E (RNEPRITFGGPSDSTG)
DMS PSSM value, A (position 3) (peptide RNAPRITFGGPSDSTG): 0.2371

APRITFGGPSDSTGSN P2I (AIRITFGGPSDSTGSN)
DMS PSSM value, P (position 2) (peptide APRITFGGPSDSTGSN): 0

APRITFGGPSDSTGSN D11T (APRITFGGPSTSTGSN)
DMS PSSM value, D (position 11) (peptide APRITFGGPSDSTGSN): 0.104

APRITFGGPSDSTGSN R3T (APTITFGGPSDSTGSN)
DMS PSSM value, R (position 3) (peptide APRITFGGPSDSTGSN): 0.001362

RNAPRITFGGPSDSTG F8E (RNAPRITEGGPSDSTG)
DMS PSSM value, F (position 8) (peptide RNAPRITFGGPSDSTG): 0

APRITFGGPSDSTGSN D11I (APRITFGGPSISTGSN)
DMS PSSM value, D (position 11) (peptide APRITFGGPSDSTGSN): 0.002718
